# Reference: patent US8772250B2, “Compositions and methods for treating ischemia and ischemia-reperfusion injury” (Ischemix, LLC, priority 2010, dated 2014)
# Marks after values point to notes of the source that are not given here.
# Legend:
# IGF1R = IGF1R (Homo sapiens, UniProt P08069); assay: IGF1R tyrosine kinase activation assay (mobility shift); type: biochemical
# Excerpt: IGF1R and Src tyrosine kinases have endogenous levels of activity in the presence of ATP and substrate. This activity was readily measured using a mobility shift assay using a Caliper LabChip® 3000 and a 12-sipper LabChip® to detect both phosphorylated and unphosphorylated substrate (Caliper Life Sciences, Discovery Alliances and Services Division). Enzyme, substrate and ATP concentrations were optimized for each assay. For the IGF1R assay, the final concentrations of the enzyme, peptide and ATP were 20 nM, 1.5 μM, and 1220 μM, respectively. For the Src assay, the final concentrations of the enzyme, peptide and ATP were 2.5 nM, 1.5 μM, and 17 μM, respectively.
# RLip-EA-OH was evaluated at multiple concentrations for an effect on activation of IGF1 receptor kinase (IGF1R) and Src. The compounds tested activated IGF1R and Src with different selectivities.
# [1] = test system: myocardial ischemia-reperfusion injury; assay: Rat model of myocardial I/R injury (MI/AR ratio); type: in vivo; settings: for % Reduction in MI/AR Compared to Vehicle: rat IV
# Excerpt: A rat model of myocardial I/R injury was used as an in vivo screen to determine if certain lipoic acid derivative compounds are cardio-protective (e.g., against mycoardial ischemia-reperfusion injury). This model is analogous to the ischemia-reperfusion injury observed in cardiac patients following coronary occlusions and cardiac surgery procedures, such as coronary artery bypass grafting (CABG) (Matsui, T., Tao, J., del Monte, F., Lee, K.-H. et al., Akt Activation Preserves Cardiac Function and Prevents Injury After Transient Cardiac Ischemia In vivo, Circulation 2001, 104:330).
# The circumflex branch of the left coronary artery was ligated temporarily to induce regional ischemia in the left ventricular mass, followed by the injection of fluorescent microspheres to delineate the ischemic region. The animals were sacrificed about 24 hours after reperfusion and the hearts were excised, sectioned and stained with triphenyltetrazolium. The direct impact of the pharmacologic intervention was determined by measuring the myocardial infarct area (MI), the ischemic area at risk (AR) and the left ventricular area (LV). The reduction of MI over the AR (MI/AR ratio) was used as the primary measure of drug efficacy relative to vehicle controls.
# Male Sprague-Dawley rats between 300 and 350 gm were used for these experiments. Anesthesia was induced with 3-4% isoflurane in an induction chamber. After induction, anesthesia was maintained at a surgical plane with 1.5-2.0% isoflurane, administered by a Rodent Ventilator through a 16-gauge angiocatheter introduced orally into the trachea. The ventilator was set at 2.5 cc at a rate of 60-65 breaths per minute to maintain ventilation during surgery. The core temperature of the animal was monitored and maintained at 37° C. using a rectal probe and a heating lamp attached to a temperature controller.
# A left anterior thoracotomy was performed and the heart was exposed using a vertical pericardotomy. The circumflex branch of the left coronary artery (LCx) was ligated approximately 4 mm from the aorta using a cardiovascular 7.0 monofilament suture on an 11 mm needle to induce ischemia in the left ventricle.
# Fluorescent microspheres (300 μL) were injected into the left ventricular cavity 10-20 minutes after the ligation to delineate the ischemic area. The suture was removed 30 minutes after ligation to reperfuse the ischemic area and the ischemic area was checked for reperfusion.
# The chest was then closed in layers using absorbable suture (Dexon 5-0) for the muscle layers and monofilament Nylon 5-0 suture was used to close the cutaneous layer. The animals were allowed to recover, then were returned to the colony.
# Twenty-four hours after reperfusion, anesthesia was induced using ketamine hydrochloride and the chest was opened. The animals were sacrificed with 15% potassium chloride aqueous solution (w/v) injected into the LV cavity to arrest the heart in diastole. The heart was excised distal to the aortic valve and washed with saline to remove the blood. Sagittal slices of the heart were obtained between the base of the ventricle and the apex. Five slices of heart tissue were obtained, each 2 mm thick. The slices were immersed in a 1% 2,3,5-triphenyl-2H-tetrazolium chloride (TTC) in saline solution and then stored in the dark for 30 minutes to stain.
# Images of the slices were obtained under bright field (to observe the TTC staining) and under fluorescence (to observe the microspheres). The area at risk was determined by the absence of microspheres and the infarct area was determined by the absence of TTC staining.
# In vivo experiments employing a rat model of myocardial I/R injury were performed as described in Example 8. Catheterized (jugular vein) rats were used for intravenous dose administration at time points prior to and/or including 0.25 h.
# [2] = test system: RIP-deficient Jurkat cells; assay: Cell survival assay, TNFα-induced apoptosis; type: cell-based, human; settings: for % Survival: 10 ng/mL TNFα, 24 h
# Experimental: The ability of RLip-EA-OH to prevent apoptosis and promote cell survival was assessed using Jurkat cells deficient in Receptor-Interacting Protein (RIP), a cell death mediating protein. The Jurkat cell line is derived from human T-Lymphocytes. RIP-deficient Jurkat cells are susceptible to apoptosis when treated with tumor necrosis factor alpha (TNFα). These cells were treated with either vehicle or RLip-EA-OH and then apoptosis was triggered with TNFα. Cell survival was assessed to evaluate if RLip-EA-OH protected the cells against TNFα induced apoptosis.
# RIP-deficient Jurkat cells were seeded into 96 well plates at 20,000 cells per well and treated for 2 hours with RLip-EA-OH (6 wells for each concentration) or DMSO. After pretreatment, 3 wells for each dose of drug were exposed to 10 ng/mL human recombinant TNFα (TNFα was not added to the other 3 wells). Twenty four hours after TNFα treatment, ATP cell viability was determined (CellTiter-Glo, Promega) and the values were used to calculate % survival of the cells.
# Chain of IGF1R (P08069 959-1367 limits assumed, species assumed): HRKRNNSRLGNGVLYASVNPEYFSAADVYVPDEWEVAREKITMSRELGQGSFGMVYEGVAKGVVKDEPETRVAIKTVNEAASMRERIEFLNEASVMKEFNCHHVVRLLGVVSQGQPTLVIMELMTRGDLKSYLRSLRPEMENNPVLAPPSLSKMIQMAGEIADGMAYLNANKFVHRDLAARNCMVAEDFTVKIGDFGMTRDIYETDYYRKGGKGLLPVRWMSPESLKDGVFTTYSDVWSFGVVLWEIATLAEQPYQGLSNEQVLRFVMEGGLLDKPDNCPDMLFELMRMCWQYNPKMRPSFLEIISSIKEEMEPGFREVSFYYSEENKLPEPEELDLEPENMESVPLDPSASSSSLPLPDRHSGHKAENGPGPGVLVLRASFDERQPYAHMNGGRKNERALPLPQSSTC
smiles,measurement,setting,value
"C[C@H](NC(=O)[C@H](CCC(=O)O)NC(=O)CCCC[C@@H]1CCSS1)C(=O)O [RLip-EA-OH, N-(R)-lipoyl-L-glutamyl-L- alanine]",IGF1R % activity above control (±SEM),IGF1R; 100 μM,42 ± 1%
same,IGF1R % Increase in activity above vehicle control,IGF1R; 300 μM,33 ± 3%
same,% Reduction in MI/AR Compared to Vehicle,[1]; Entry 2b: 3 mg/kg (1 h infusion) at −1 h,12%
same,% Reduction in MI/AR Compared to Vehicle,[1]; Entry 5: 15 mg/kg at −0.25 h,30* %
same,% Reduction in MI/AR Compared to Vehicle,[1]; Entry 7: 10 mg/kg at −3 h,33* %
same,% Reduction in MI/AR Compared to Vehicle,[1]; Entry 12: 10 and 10 mg/kg at −3 and −0.25 h,43* %
same,% Reduction in MI/AR Compared to Vehicle,[1]; Entry 13: 20 and 10 mg/kg at −3 and −0.25 h,38* %
same,% Reduction in MI/AR Compared to Vehicle,[1]; Entry 16: 10 and 10 and 10 mg/kg at −3 and −0.25 h and at reperfusion,15%
same,% Reduction in MI/AR compared to vehicle controls,"[1]; rat, Table 11: 10 mg/kg at −3 h",29%
same,reduction of MI (meta-analysis),"[1]; rat, multiple dosing 10 mg/kg at −3 h and −0.25 h",43%
same,% Survival,[2]; 0.006 μM,84%
same,% Survival,[2]; 0.012 μM,95%
same,% Survival,[2]; 0.05 μM,96%
same,% Survival,[2]; 0.1 μM,98%
same,% Survival,[2]; 0.2 μM,101%
same,% Survival,[2]; 1.5 μM,106%
same,effect on TNFα induced cell death,[2]; RIP-deficient Jurkat cells,prevented TNFα induced cell death in a dose dependent manner
